Reference: paper PMC11316798, “Signaling by a bacterial phytochrome histidine kinase involves a conformational cascade reorganizing the dimeric photoreceptor” (Nature Communications, 2024)

T1: PsBphP1 (Pseudomonas syringae group genomosp. 3, UniProt Q885D3)
T1 construct: gene bphP
T1 sequence (Q885D3 1-745): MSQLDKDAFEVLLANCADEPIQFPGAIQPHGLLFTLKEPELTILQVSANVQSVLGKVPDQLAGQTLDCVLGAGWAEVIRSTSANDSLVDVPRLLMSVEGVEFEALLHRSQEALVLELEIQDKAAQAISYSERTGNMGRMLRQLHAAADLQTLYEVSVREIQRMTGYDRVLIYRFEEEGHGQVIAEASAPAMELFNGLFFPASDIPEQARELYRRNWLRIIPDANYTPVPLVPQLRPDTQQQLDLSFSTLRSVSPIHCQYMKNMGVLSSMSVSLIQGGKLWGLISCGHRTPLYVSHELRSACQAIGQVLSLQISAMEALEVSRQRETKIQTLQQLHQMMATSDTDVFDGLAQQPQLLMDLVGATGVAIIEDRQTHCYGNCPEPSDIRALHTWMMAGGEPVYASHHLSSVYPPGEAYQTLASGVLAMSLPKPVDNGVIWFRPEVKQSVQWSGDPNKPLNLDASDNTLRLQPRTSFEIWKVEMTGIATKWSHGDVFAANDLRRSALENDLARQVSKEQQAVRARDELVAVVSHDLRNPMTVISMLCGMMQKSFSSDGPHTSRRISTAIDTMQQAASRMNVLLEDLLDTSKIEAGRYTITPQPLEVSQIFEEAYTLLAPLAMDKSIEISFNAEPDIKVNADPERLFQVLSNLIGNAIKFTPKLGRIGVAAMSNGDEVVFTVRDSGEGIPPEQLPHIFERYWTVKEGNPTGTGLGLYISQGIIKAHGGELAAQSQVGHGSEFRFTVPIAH

B1: Pseudomonas syringae bacteriophytochrome photoreceptor BphP1 (PsBphP1), full length, assembled with biliverdin (natural protein)
chain: GMSQLDKDAFEVLLANCADEPIQFPGAIQPHGLLFTLKEPELTILQVSANVQSVLGKVPDQLAGQTLDCVLGAGWAEVIRSTSANDSLVDVPRLLMSVEGVEFEALLHRSQEALVLELEIQDKAAQAISYSERTGNMGRMLRQLHAAADLQTLYEVSVREIQRMTGYDRVLIYRFEEEGHGQVIAEASAPAMELFNGLFFPASDIPEQARELYRRNWLRIIPDANYTPVPLVPQLRPDTQQQLDLSFSTLRSVSPIHCQYMKNMGVLSSMSVSLIQGGKLWGLISCGHRTPLYVSHELRSACQAIGQVLSLQISAMEALEVSRQRETKIQTLQQLHQMMATSDTDVFDGLAQQPQLLMDLVGATGVAIIEDRQTHCYGNCPEPSDIRALHTWMMAGGEPVYASHHLSSVYPPGEAYQTLASGVLAMSLPKPVDNGVIWFRPEVKQSVQWSGDPNKPLNLDASDNTLRLQPRTSFEIWKVEMTGIATKWSHGDVFAANDLRRSALENDLARQVSKEQQAVRARDELVAVVSHDLRNPMTVISMLCGMMQKSFSSDGPHTSRRISTAIDTMQQAASRMNVLLEDLLDTSKIEAGRYTITPQPLEVSQIFEEAYTLLAPLAMDKSIEISFNAEPDIKVNADPERLFQVLSNLIGNAIKFTPKLGRIGVAAMSNGDEVVFTVRDSGEGIPPEQLPHIFERYWTVKEGNPTGTGLGLYISQGIIKAHGGELAAQSQVGHGSEFRFTVPIAH
modifications: biliverdin (BV) covalently linked via a thioether linkage to Cys16
notes: PsBphP1, bacteriophytochrome histidine kinase of Pseudomonas syringae, full-length polypeptide, residues 1-745; One molecule for both light states: Pr (dark-adapted) and Pfr (red-light irradiated, ~80% Pfr); the state is named in each assay; Dimer as Pr; dimer-tetramer (dimer-of-dimers) equilibrium as Pfr; also called P. syringae BphP1; P. syringae BphP; not shown: His6, N-terminal, cleaved

Columns and labels:
[1] = molecular target: T2, PsAlgB (mixed with PsBphP1) (Pseudomonas syringae group genomosp. 3, UniProt Q88AQ2); details: 1.5 mM ATP, 5 mM MgCl2, pH 7.5, 22 °C, 175 mM KSCN; needs PsBphP1 (Pr or Pfr); authors presume the ATPase is intrinsic to PsAlgB
T2 construct: gene algB

PsBphP1 = molecular target: T1, PsBphP1; details: labelled compound; Pfr under red light; 150 uM ATP, 5 mM MgCl2, pH 7.5, 22 °C; phosphoacceptor His530
[2] = molecular target: the molecule itself; experiment: cryo-EM structure; PsBphP1 as Pfr (irradiated 10 min with 630-nm LED), 0.5 mg/mL, 175 mM KSCN, 10 mM 2-mercaptoethanol, 10 mM HEPES-NaOH pH 7.5; dimers (medial, splayed) and tetrameric dimer-of-dimers
[3] = molecular target: the molecule itself; experiment: cryo-EM structure; PsBphP1 as Pr (dark-adapted), 0.5 mg/mL, 175 mM KSCN, 10 mM 2-mercaptoethanol, 10 mM HEPES-NaOH pH 7.5; head-to-head dimer

T2 sequence (Q88AQ2 whole entry, one chain of several): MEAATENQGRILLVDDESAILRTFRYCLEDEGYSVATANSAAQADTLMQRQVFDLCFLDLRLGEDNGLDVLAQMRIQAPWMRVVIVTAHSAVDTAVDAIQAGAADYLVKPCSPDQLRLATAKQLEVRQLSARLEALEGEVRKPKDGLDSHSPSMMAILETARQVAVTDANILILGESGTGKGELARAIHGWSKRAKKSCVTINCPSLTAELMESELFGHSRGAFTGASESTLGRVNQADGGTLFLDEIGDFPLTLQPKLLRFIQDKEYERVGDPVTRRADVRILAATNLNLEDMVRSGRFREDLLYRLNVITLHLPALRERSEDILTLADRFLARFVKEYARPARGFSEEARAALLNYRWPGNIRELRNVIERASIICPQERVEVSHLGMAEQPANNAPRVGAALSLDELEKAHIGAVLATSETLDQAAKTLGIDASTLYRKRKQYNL

| Molecule | SEC elution shift of ATP to ADP [1] | autophosphorylation with 32P-ATP, SDS-PAGE and phosphorimaging (PsBphP1) | stoichiometry N [2] | stoichiometry N [3] |
| --- | --- | --- | --- | --- |
| Nc1ncnc2c1ncn2[C@@H]1O[C@H](COP(=O)(O)OP(=O)(O)OP(=O)(O)O)[C@@H](O)[C@H]1O [ATP] | the two proteins together elicited robust ATPase activity for PsAlgB | initial autophosphorylation of PsBphP1 required the predicted internal phosphoacceptor His530 | – | – |
| B1 | – | – | 4 | 2 |
